Columns and labels:
[1] = molecular target: T1, recombinant human estradiol receptors (rhER) alpha (α) (Homo sapiens, UniProt P03372); experiment: in vitro competitive binding assay, displacement of radiolabeled 17b-estradiol, rhER alpha; conditions: result in words; highest concentration 2.5×E-4 M
T1 sequence (P03372 1-595): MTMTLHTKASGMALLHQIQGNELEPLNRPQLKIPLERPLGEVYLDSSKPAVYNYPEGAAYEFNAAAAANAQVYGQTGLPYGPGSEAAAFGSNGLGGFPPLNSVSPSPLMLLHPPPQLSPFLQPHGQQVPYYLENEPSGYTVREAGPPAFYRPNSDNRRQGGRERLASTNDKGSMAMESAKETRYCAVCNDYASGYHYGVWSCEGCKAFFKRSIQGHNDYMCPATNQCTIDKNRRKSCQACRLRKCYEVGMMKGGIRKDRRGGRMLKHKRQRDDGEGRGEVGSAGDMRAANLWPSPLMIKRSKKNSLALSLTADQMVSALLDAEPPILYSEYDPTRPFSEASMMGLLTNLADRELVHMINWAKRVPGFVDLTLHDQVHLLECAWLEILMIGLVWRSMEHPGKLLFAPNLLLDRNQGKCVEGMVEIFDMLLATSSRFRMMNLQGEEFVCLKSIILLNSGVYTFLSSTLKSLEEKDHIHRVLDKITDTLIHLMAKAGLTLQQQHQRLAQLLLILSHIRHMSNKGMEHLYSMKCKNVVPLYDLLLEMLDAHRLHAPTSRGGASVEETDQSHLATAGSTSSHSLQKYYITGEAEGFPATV

[2] = molecular target: recombinant human estradiol receptors (rhER) beta 1 (β1) (Homo sapiens, UniProt Q92731); experiment: in vitro competitive binding assay, displacement of radiolabeled 17b-estradiol, rhER beta 1; conditions: result in words; highest concentration 2.5×E-4 M
Chain of recombinant human estradiol receptors (rhER) beta 1 (β1) (Q92731 whole entry): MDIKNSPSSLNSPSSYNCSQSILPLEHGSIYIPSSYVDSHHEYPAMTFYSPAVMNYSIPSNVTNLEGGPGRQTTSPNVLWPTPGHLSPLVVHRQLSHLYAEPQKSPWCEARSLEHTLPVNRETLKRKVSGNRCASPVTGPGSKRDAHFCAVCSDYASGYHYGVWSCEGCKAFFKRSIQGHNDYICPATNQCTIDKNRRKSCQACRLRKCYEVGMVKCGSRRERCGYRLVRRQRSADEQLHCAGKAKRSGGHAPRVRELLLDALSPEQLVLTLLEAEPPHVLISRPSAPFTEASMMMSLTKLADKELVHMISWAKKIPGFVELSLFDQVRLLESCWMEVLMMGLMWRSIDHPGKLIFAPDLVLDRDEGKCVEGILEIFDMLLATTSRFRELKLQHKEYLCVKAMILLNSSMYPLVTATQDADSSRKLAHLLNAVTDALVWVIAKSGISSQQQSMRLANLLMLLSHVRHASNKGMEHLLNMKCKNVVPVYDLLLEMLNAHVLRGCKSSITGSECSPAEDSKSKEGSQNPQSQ

## COc1cc(C(C)(C)c2ccc(O)c(OC)c2)ccc1O [compound 1, 4,4′ (2,2′-isoPropylidene)-Bis(ortho Methoxy)Phenol (PBMP)]
[1]
  estradiol binding activity, alpha receptor binding: no estradiol binding activity
[2]
  estradiol binding activity, beta receptor binding: no estradiol binding activity
